The experiment relates to cells infected with the SF1 gene or the SF1+MC2R+MRAP genes. The experiment in a line: ACTH stimulation of hiSCs: cortisol and aldosterone secretion. The format is cell-based, human. The note with it: ACTH 0 nM, 10 nM.

“adrenocorticotropic hormone (SYSMEHFRWGKPVGKKRRPVKVYPNGAEDESAEAFPLEF; Corticotropin; UniProt P01189 138-176, looked up) [ACTH, hormone secreted by the anterior pituitary gland, used to stimulate the cells]”: the production/secretion of cortisol result (1 uM (FIG. 15B)) is “increasing with administration of increasing ACTH dosage”. Further, the production/secretion of aldosterone result (1 uM (FIG. 15C)) is reported as “increasing with administration of increasing ACTH dosage”.

(Values after US20250277187A1, “A METHOD FOR PRODUCING INDUCED STEROIDOGENIC CELLS AND USE THEREOF IN CELL THERAPY” (TECHNISCHE UNIVERSITAET DRESDEN, priority 2021, published 2025).)
